Test results taken from ChEMBL document CHEMBL3217477, “Synthesis and biological evaluation of substituted - and -2,3-dihydrofuran naphthoquinones as potent anticandidal agents” (Medchemcomm, 2010).
Values after ≈ are worked out from the molar mass of the structure shown.

Tests used:
Candida albicans [1] = experiment: Antifungal activity against Candida albicans assessed as growth inhibition at 250 ug/mL after 24 hrs by hole plate diffusion method; type: functional; conditions: read-out: IZ
Candida tropicalis [2] = experiment: Antifungal activity against Candida tropicalis assessed as growth inhibition at 250 ug/mL after 24 hrs by hole plate diffusion method; type: functional; conditions: read-out: IZ
Kluyveromyces marxianus [3] = experiment: Antifungal activity against Candida kefyr assessed as growth inhibition at 250 ug/mL after 24 hrs by hole plate diffusion method; type: functional; conditions: read-out: IZ
Candida parapsilosis [4] = experiment: Antifungal activity against Candida parapsilosis assessed as growth inhibition at 250 ug/mL after 24 hrs by hole plate diffusion method; type: functional; conditions: Lodderomyces parapsilosis, read-out: IZ
Pichia kudriavzevii [5] = experiment: Antifungal activity against Candida krusei assessed as growth inhibition at 250 ug/mL after 24 hrs by hole plate diffusion method; type: functional; conditions: read-out: IZ
Candida dubliniensis [6] = experiment: Antifungal activity against Candida dubliniensis assessed as growth inhibition at 250 ug/mL after 24 hrs by hole plate diffusion method; type: functional; conditions: read-out: IZ
Candida albicans [7] = experiment: Antifungal activity against Candida albicans assessed as growth inhibition after 24 hrs by microbroth dilution method; type: functional
Candida tropicalis [8] = experiment: Antifungal activity against Candida tropicalis assessed as growth inhibition after 24 hrs by microbroth dilution method; type: functional
Kluyveromyces marxianus [9] = experiment: Antifungal activity against Candida kefyr assessed as growth inhibition after 24 hrs by microbroth dilution method; type: functional
Candida parapsilosis [10] = experiment: Antifungal activity against Candida parapsilosis assessed as growth inhibition after 24 hrs by microbroth dilution method; type: functional; conditions: Lodderomyces parapsilosis
Pichia kudriavzevii [11] = experiment: Antifungal activity against Candida krusei assessed as growth inhibition after 24 hrs by microbroth dilution method; type: functional
Candida dubliniensis [12] = experiment: Antifungal activity against Candida dubliniensis assessed as growth inhibition after 24 hrs by microbroth dilution method; type: functional
Candida albicans [13] = experiment: Antifungal activity against Candida albicans ATCC 90028 assessed as growth inhibition after 24 hrs by microbroth dilution method; type: functional; conditions: ATCC 90028, 24 h
[14] = Hemolytic activity in Swiss mouse erythrocytes at 50 ug/mL after 1 hr by spectrophotometric analysis relative to control; type: ADME, cell-based, Erythrocyte; conditions: read-out: Activity
[15] = Cytotoxicity against mouse NIH/3T3 cells assessed as dead cells at 12.5 ug/mL after 72 hrs by Alamar Blue assay relative to control; type: cell-based; conditions: nih3t3, 72 h

Structure (SMILES): CC1(c2ccccc2)CC2=C(O1)C(=O)c1ccccc1C2=O (stereo not given)
- zone of inhibition at 250 µg/mL (Candida albicans [1]): 16.1 mm
- zone of inhibition at 250 µg/mL (Candida tropicalis [2]): 3.83 mm
- zone of inhibition at 250 µg/mL (Kluyveromyces marxianus [3]): 7.42 mm
- zone of inhibition at 250 µg/mL (Candida parapsilosis [4]): 0 mm
- zone of inhibition at 250 µg/mL (Pichia kudriavzevii [5]): 7.05 mm
- zone of inhibition at 250 µg/mL (Candida dubliniensis [6]): 4.63 mm
- MIC (Candida albicans [7]): 45.2 µM (≈ 13.1 µg/mL)
- MIC (Candida tropicalis [8]): 45.2 µM (≈ 13.1 µg/mL)
- MIC (Kluyveromyces marxianus [9]): 90.5 µM (≈ 26.3 µg/mL)
- MIC (Candida parapsilosis [10]): 45.2 µM (≈ 13.1 µg/mL)
- MIC (Pichia kudriavzevii [11]): 172 µM (≈ 50 µg/mL)
- MIC (Candida dubliniensis [12]): 45.2 µM (≈ 13.1 µg/mL)
- MIC (Candida albicans [13]): 45.2 µM (≈ 13.1 µg/mL)
- hemolysis at 1 h, 50 ug/mL [14]: 4.54%
- mortality [15]: 0%

Structure (SMILES): O=C1C(=O)c2ccccc2C2=C1CC(c1ccc(Br)cc1)O2 (stereo not given)
- zone of inhibition at 250 µg/mL (Candida albicans [1]): 6.17 mm
- zone of inhibition at 250 µg/mL (Candida tropicalis [2]): 0 mm
- zone of inhibition at 250 µg/mL (Kluyveromyces marxianus [3]): 8.68 mm
- zone of inhibition at 250 µg/mL (Candida parapsilosis [4]): 7.75 mm
- zone of inhibition at 250 µg/mL (Pichia kudriavzevii [5]): 11.3 mm
- zone of inhibition at 250 µg/mL (Candida dubliniensis [6]): 9.23 mm
- MIC (Candida albicans [7]): 35.2 µM (≈ 12.5 µg/mL)
- MIC (Candida tropicalis [8]): 8.79 µM (≈ 3.12 µg/mL)
- MIC (Kluyveromyces marxianus [9]): 4.39 µM (≈ 1.56 µg/mL)
- MIC (Candida parapsilosis [10]): 8.79 µM (≈ 3.12 µg/mL)
- MIC (Pichia kudriavzevii [11]): 4.39 µM (≈ 1.56 µg/mL)
- MIC (Candida dubliniensis [12]): 2.19 µM (≈ 0.778 µg/mL)
- MIC (Candida albicans [13]): 70.4 µM (≈ 25 µg/mL)
- hemolysis at 1 h, 50 ug/mL [14]: 4.59%
- mortality [15]: 0%

Structure (SMILES): Cc1ccc(C2CC3=C(O2)c2ccccc2C(=O)C3=O)c(C)c1 (stereo not given)
- zone of inhibition at 250 µg/mL (Candida albicans [1]): 2.93 mm
- zone of inhibition at 250 µg/mL (Candida tropicalis [2]): 7.51 mm
- zone of inhibition at 250 µg/mL (Kluyveromyces marxianus [3]): 9.28 mm
- zone of inhibition at 250 µg/mL (Candida parapsilosis [4]): 9 mm
- zone of inhibition at 250 µg/mL (Pichia kudriavzevii [5]): 10.8 mm
- zone of inhibition at 250 µg/mL (Candida dubliniensis [6]): 4.19 mm
- MIC (Candida albicans [7]): 82.1 µM (≈ 25 µg/mL)
- MIC (Candida tropicalis [8]): 41.1 µM (≈ 12.5 µg/mL)
- MIC (Kluyveromyces marxianus [9]): 41.1 µM (≈ 12.5 µg/mL)
- MIC (Candida parapsilosis [10]): 10.3 µM (≈ 3.12 µg/mL)
- MIC (Pichia kudriavzevii [11]): 5.13 µM (≈ 1.56 µg/mL)
- MIC (Candida dubliniensis [12]): 41.1 µM (≈ 12.5 µg/mL)
- MIC (Candida albicans [13]): 82.1 µM (≈ 25 µg/mL)
- hemolysis at 1 h, 50 ug/mL [14]: 4.37%
- mortality [15]: 17%
